Our source for the Km values is article PMC10604213, “Purification and Characterization of Polyphenol Oxidase in the Fruits of Opuntia ficus-indica” (Biology, 2023).

Each structure is given as a SMILES string.

Assay [1] has as its system T1, polyphenol oxidase (PPO) from the fruits of Opuntia ficus-indica.
T1 construct: native, from fruit flesh; few SDS-PAGE bands, two prominent: slightly below 35 kDa and slightly above 45 kDa
Put plainly: absorbance at […] nm, Lineweaver-Burk. The assay is classed as biochemical. The note with it: 0.1 M phosphate buffer.

The test system is the same in assay [2]. Put plainly: absorbance at […] nm, Lineweaver-Burk. The note with it: pH 9.0, 20 °C, 0.1 M Tris-base buffer. Type of assay: biochemical.

`Cc1ccc(O)c(O)c1` [4-methyl catechol]: in assay [1] (pH 7.5, 30 °C), the Km came to 5.38 mM.
In the case of `Oc1ccccc1O` [catechol], in assay [1] (pH 7.5, 20 °C), the Km was 6.33 mM.
With `Oc1cccc(O)c1O` [pyrogallol], the Michaelis-Menten constant (Km) in assay [2] turned out to be 16.7 mM.
